Eight molecules from patent US6028197A, “Dibenzo[a,g]quinolizinium derivatives and the salts thereof” (Hanwha Corporation, priority 1998, dated 2000) can be followed below.

Like-named read-outs stand apart in the source and are kept apart here.

One data set deals with T1, sterol 14-reductase (Rattus norvegicus, UniProt A0ACM8Q6X4).
T1 construct: microsome which was used as an enzyme source of sterol 14-reductase; from tissue; host or cells: liver microsomes of male Sprague-Dawley rats fed lovastatin and cholestyramine
T1 sequence (A0ACM8Q6X4 1-418): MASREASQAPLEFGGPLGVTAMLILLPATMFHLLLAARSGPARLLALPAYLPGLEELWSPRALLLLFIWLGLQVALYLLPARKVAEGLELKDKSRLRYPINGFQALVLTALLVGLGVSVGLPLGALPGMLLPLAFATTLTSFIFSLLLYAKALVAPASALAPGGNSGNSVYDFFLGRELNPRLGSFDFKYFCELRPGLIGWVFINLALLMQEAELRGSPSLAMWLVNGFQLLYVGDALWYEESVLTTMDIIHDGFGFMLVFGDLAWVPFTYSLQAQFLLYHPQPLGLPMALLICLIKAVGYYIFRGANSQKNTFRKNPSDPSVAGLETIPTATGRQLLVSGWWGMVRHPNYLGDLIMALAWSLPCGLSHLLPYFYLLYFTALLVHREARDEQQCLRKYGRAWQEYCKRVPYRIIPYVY
Kind of data set: Inhibition of sterol 14-reductase in rat liver microsomes. It counts as biochemical.

The test system of a further data set is HepG2 cells. Nature of the data set: Cholesterol biosynthesis in cultured human liver cell line ([1,2-14C]acetate incorporation). The following applies: compared with AY9944 (comparative drug). It counts as cell-based. On the procedure: Cultured human liver HepG2 cell line was grown on RPMI (Rosewell park Memorial Institute) 1640 culture medium containing 10% PBS until 60% of monolayer are formed in a 60 mm culture dish. After replacing the medium with 3 ml of a fresh culture medium containing 10% (v/v) LPDS (Fetal calf lipoprotein-deficient serum), the cells were further grown for 48 hours until 90% of cultivation degree appear The culture medium was removed and the cell was then washed with PBS. 2 ml of culture medium containing compound no. 2 (final concentration 100 μM) and AY-9944 (final concentration 1 μM) were added thereto. Then, the medium was cultivated at 37° C. for 1 hour under the condition of 95% air/5% carbonic acid gas. AY-9944 which is an inhibitor for sterol 7-reductase was used as a control drug for assuring the present experimental procedure on the inhibition of cholesterol biosynthesis. Thereafter, 3 μCi of [1,2-^14 C]acetate (72 mCi/mmol) were added thereto. The cultivation was continued for 2 hours so that the isotope is introduced into the cell and used as a precursor for sterol to be synthesized. Then, the culture medium was completely removed and washed with PBS twice and the cells were collected by scratching. 10 μg of cholesterol, 10 μg of lanosterol and [^3 H]cholesterol (30,000 dpm) were added thereto, and saponification reaction was carried out at 70° C. for an hour by adding 7.5% of methanolic KOH solution. Unsaponified sterol was removed by extracting them three times with 3 ml of petroleum ether and dried with nitrogen purging. The dried samples were redissolved in 200 μl of chloroform. An aliquot of the samples was loaded onto Silicagel 60F thin layer plate and then separated using ethyl acetate/hexane 25/75 (v/v) as the developing solvent. The thin layer film was developed by exposure to Amersham Hyperfilm at -70° C. for 7 days. Cholesterol band were confirmed by comparing the band appeared in the film and that appeared in the iodine-stained thin layer. After scratching the cholesterol band, it was quantified by a liquid scintillation counter.

In a further data set the test system is Syrian Golden Hamster. Kind of data set: In vivo effect on plasma lipids in Syrian Golden Hamster. The settings on record: for HDL cholesterol, change versus normal diet control / LDL cholesterol, change versus normal diet control / Total cholesterol, change versus normal diet control / Triglyceride, change versus normal diet control / HDL cholesterol / LDL cholesterol / Total cholesterol / Triglyceride: 14 days; for total cholesterol, LDL-cholesterol, and triglyceride levels: compared with lovastatin; for HDL cholesterol / LDL cholesterol / Total cholesterol / Triglyceride: normal diet, plasma. On the procedure: In order to investigate the effect of the compound of formula (I) of the invention, the compound was orally administered into male Syrian Golden Hamsters having weights of 90~110 g for two weeks and blood was then taken from each animal. Plasma lipids, i.e., total cholesterol, LDL-cholesterol,HDL-cholesterol and triglycerides were analyzed using an automatic analyzer (Automatic analyzer model Hitachi 7150).
Male Syrian Golden Hamsters weighing 90~110 g distributed from Samyuk Animal Laboratory, Seoul, Korea were bred under the following conditions: they were maintained under reverse light cycle (light cycle: from 6 P.M to 6 A.M; dark cycle: from 6 A.M. to 6 P.M.). The food and water were supplied at 10 A.M. The commercially available standard rodent chows were used. The hamsters were divided into 6 or 7 animals per group. The animals were fasted for 12 hours before administrating the drug. Then, 5,6-dihydrodibenzo[a,g]quinolizinium salts (compound no. 2) dissolved in a 0.25% methyl cellulose solution was administered orally for 14 days at the indicated time per a day. After fasting animals for 24 hours from the last administration, blood was extracted using a cardiac puncture and plasma was then isolated. Plasma lipids, i.e., total cholesterol, LDL-cholesterol, HDL-cholesterol and triglyceride values were analyzed using Automatic Analyzer (Hitachi 7150).

A short description of data set [1]: Acute oral toxicity in SD rats. Type of data set: in vivo. The following applies: rat, in vivo, po, rats. On the procedure: (§1) Meanwhile, the toxicity of the compounds of the present invention was investigated as follows: i.e., the compounds were suspended into propylene glycol and then orally administered into each of 5 male and female SD rats at the age of 5-weeks that were fasted for 12 hours. Under the usual breeding conditions, general symptoms, weight change and lethal case of the above rats were monitored for two weeks. At the dose over 2,000 mg/kg of the compound nos. 2, 3, 9 and 68, general symptoms and the body weight change of the animals were normal and the lethal case was not observed.

A further data set has as its system SD rats. Nature of the data set: Acute oral toxicity in SD rats. Type of data set: in vivo. The following applies: for general symptoms and the body weight change: oral dose over 2,000 mg/kg, monitored for two weeks; for lethal case: rat, in vivo. As for the experimental part:
as §1

[2] abbreviates: read-out: Enzyme Activity (relative in vitro activity for sterol 14-reductase, IC50 class).

For orientation: LD50 means the dose at which mortality reaches 50%. A lower LD50 goes with greater toxicity. `CCCOc1cc2c(cc1OCCC)-c1c(CC)c3ccc(OCCC)c(OCc4ccc(C(F)(F)F)cc4)c3c[n+]1CC2` [Compound No. 68, 5,6-dihydro-2,3-dipropoxybenzo[a]-13-ethyl-10-propoxy-9-(4-trifluoromethyl)benzyloxybenzo[g]quinolizinium chloride]: the IC50 at sterol 14-reductase (setting [2]) is less than 1 µM. The “inhibition of cholesterol biosynthesis in human HepG2 cell line” value (“inhibition of cholesterol biosynthesis” for short) with HepG2 cells is on record as “markedly inhibited”. In addition, in the data set on Syrian Golden Hamster (0.3 mg/kg/day oral), the “HDL cholesterol, change versus normal diet control” value is reported as -2.0%; the “LDL cholesterol, change versus normal diet control” value is -41.1%; the “Total cholesterol, change versus normal diet control” value was -33.1%; the “Triglyceride, change versus normal diet control” value is recorded as -43.1%. In the data set with Syrian Golden Hamster (0.3 mg/kg/day oral), the HDL cholesterol came out at 58.6 ± 3 mg/dL, the LDL cholesterol came out at 21.8 ± 3 mg/dL, the Total cholesterol was 87.4 ± 6 mg/dL and the Triglyceride stood at 45.2 ± 7 mg/dL. The “total cholesterol, LDL-cholesterol, and triglyceride levels” value (“total cholesterol, LDL-cholesterol” for short) in the data set with Syrian Golden Hamster was “markedly decreased”. This molecule yielded an LD50 at 336 h in data set [1] (female) of more than 3000 mg/kg. In addition, the LD50 at 336 h in data set [1] (male) is more than 3000 mg/kg. In the data set on SD rats, the “general symptoms and the body weight change” value is reported as “normal”; the lethal case entry was “not observed”.
As to `CCc1c2[n+](cc3c(OCc4ccc(C(C)(C)C)cc4)c(OC)ccc13)CCc1cc(OC)c(OC)cc1-2` [Compound No. 2, 5,6-dihydro-2,3-dimethoxybenzo[a]-9-[4-(tert-butyl)benzyloxy]-13-ethyl-10-methoxybenzo[g]quinolizinium chloride], the IC50 on sterol 14-reductase (rat liver microsome, anaerobic, 10 min at 37° C., read-out: level of compound at which 50% of inhibition of the enzymatic activity was observed) lay within 0.1 to 0.3 µM. Further, the IC50 at sterol 14-reductase (setting [2]) is less than 1 µM. The “inhibition of cholesterol biosynthesis” value with HepG2 cells is reported as “markedly inhibited”. For the same molecule, in the data set on Syrian Golden Hamster (0.3 mg/kg/day oral), the “HDL cholesterol, change versus normal diet control” value was “+11.4%”; the “LDL cholesterol, change versus normal diet control” value is recorded as -16.0%; the “Total cholesterol, change versus normal diet control” value is -11.5%; the “Triglyceride, change versus normal diet control” value is -14.6%. In the data set with Syrian Golden Hamster (0.3 mg/kg/day oral), this molecule returned an HDL cholesterol of 66.6 ± 7 mg/dL, an LDL cholesterol of 31.0 ± 3 mg/dL, a Total cholesterol of 115.8 ± 8 mg/dL and a Triglyceride of 67.8 ± 8 mg/dL. The “total cholesterol, LDL-cholesterol” value in the data set on Syrian Golden Hamster was “markedly decreased”. In data set [1] (female), this molecule returned an LD50 at 336 h of more than 2000 mg/kg. For the same molecule, in data set [1] (male), the LD50 at 336 h was more than 2000 mg/kg. In the data set on SD rats, the “general symptoms and the body weight change” value is “normal”; the lethal case entry was “not observed”.
Take `CCc1c2[n+](cc3c(OCc4ccc(C(F)(F)F)cc4)c(OC)ccc13)CCc1cc(OC)c(OC)cc1-2` [Compound No. 9, 5,6-dihydro-2,3-dimethoxybenzo[a]-13-ethyl-10-methoxy-9-(4-trifluoromethyl)benzyloxybenzo[g]quinolizinium chloride]: the IC50 at sterol 14-reductase (setting [2]) is less than 1 µM. Besides, in the data set on HepG2 cells, the “inhibition of cholesterol biosynthesis” value is “markedly inhibited”. Further, in the data set on Syrian Golden Hamster (0.3 mg/kg/day oral), the “HDL cholesterol, change versus normal diet control” value is reported as -6.0%; the “LDL cholesterol, change versus normal diet control” value is listed as -45.4%; the “Total cholesterol, change versus normal diet control” value is -37.0%; the “Triglyceride, change versus normal diet control” value is listed as -43.6%. Further, in the data set with Syrian Golden Hamster (0.3 mg/kg/day oral), the HDL cholesterol worked out at 56.2 ± 3.0 mg/dL, the LDL cholesterol was found to be 20.2 ± 2 mg/dL, the Total cholesterol came out at 82.4 ± 7 mg/dL and the Triglyceride turned out to be 44.8 ± 5.5 mg/dL. The “total cholesterol, LDL-cholesterol” value in the data set on Syrian Golden Hamster is recorded as “markedly decreased”. The LD50 at 336 h in data set [1] (female) is more than 2000 mg/kg. In addition, in data set [1] (male), the LD50 at 336 h was more than 2500 mg/kg. Further, in the data set on SD rats, the “general symptoms and the body weight change” value is reported as “normal”; the lethal case result is listed as “not observed”.
For `CC[C@H](C)C(=O)O[C@H]1C[C@@H](C)C=C2C=C[C@H](C)[C@H](CC[C@@H]3C[C@@H](O)CC(=O)O3)[C@H]21` [lovastatin, reference compound], in the data set with Syrian Golden Hamster (6.0 mg/kg/day oral), the “HDL cholesterol, change versus normal diet control” value was “+11.2%”; the “LDL cholesterol, change versus normal diet control” value is recorded as -21.4%; the “Total cholesterol, change versus normal diet control” value was -17.6%; the “Triglyceride, change versus normal diet control” value is -30.1%. In the data set on Syrian Golden Hamster (6.0 mg/kg/day oral), the HDL cholesterol turned out to be 67.0 ± 3 mg/dL, the LDL cholesterol was found to be 29.1 ± 2 mg/dL, the Total cholesterol was 107.8 ± 9 mg/dL and the Triglyceride turned out to be 55.5 ± 7 mg/dL.
With `CCc1c2[n+](cc3c(OCc4ccc(F)cc4Cl)c(OC)ccc13)CCc1cc(OC)c(OC)cc1-2` [Compound No. 10, 5,6-dihydro-2,3-dimethoxybenzo[a]-9-(2-chloro-4-fluro)benzyloxy-13-ethyl-10-methoxybenzo[g]quinolizinium chloride], the IC50 on sterol 14-reductase (setting [2]) lay in the range of 10 to 100 µM.
Still for that read-out and setting: the result for `C=Cc1ccc(COc2c(OC)ccc3c(CC)c4[n+](cc23)CCc2cc(OC)c(OC)cc2-4)cc1` [Compound No. 8, 5,6-dihydro-2,3-dimethoxybenzo[a]-13-ethyl-10-methoxy-9-(4-vinyl)benzyloxybenzo[g]quinolizinium chloride] reads more than 100 µM; that for `CCCOc1cc2c(cc1OCCC)-c1c(CC)c3ccc(OCCC)c(OCc4c(F)c(F)c(F)c(F)c4F)c3c[n+]1CC2` [Compound No. 67, 5,6-dihydro-2,3-dipropoxybenzo[a]-13-ethyl-9-(2,3,4,5,6-pentafluoro)benzyloxy-10-propoxybenzo[g]quinolizinium chloride], 10 to 100 µM; that for `CCOc1cc2c(cc1OCC)-c1c(CC)c3ccc(OCC)c(OCc4ccc(Cl)nc4)c3c[n+]1CC2` [Compound No. 65, 5,6-dihydro-2,3-diethoxybenzo[a]-9-(6-chloropyridine-3-yl)methoxy-10-ethoxy-13-ethylbenzo[g]-quinolizinium chloride], 10 to 100 µM.
